From patent US6900319B2, “Thrombin inhibitors” (Abbott GmbH & Co. KG, priority 1995, dated 2005)

A melting point of 216 to 218 °C was found for CC(=O)O.N=C(N)c1ccc(CNC(=O)[C@H]2CCCN2C(=O)C(O)C2CCCCC2)cc1 (stereo partly shown) [Example 3, (D)-2-Cyclohexyl-2-hydroxyacetylproline p-amidinobenzylamide Acetate] in this work.
